Patent US20240409519A1, “HYDROGENATED QUINOXALINES” (OTSUKA PHARMACEUTICAL CO., LTD., priority 2021, published 2024)

Legend:
[1] = target: T1, norepinephrine (NE) uptake (Rattus norvegicus, UniProt Q63380); test: Norepinephrine (NE) uptake inhibitory activity using rat brain synaptosome; assay type: biochemical; settings: rat hippocampus synaptosome, tritium-labeled NE 12 nM; read-out: IC50 (nM), norepinephrine (NE) uptake inhibition
T1 construct: used as crude synaptosomal fraction; from tissue; host or cells: rat hippocampus, crude synaptosomal fraction
Procedure: Male Wistar rats were decapitated, each brain was removed, and the hippocampus was cut out. […] The homogenate was centrifuged at 1000 g at 4° C. for 10 minutes, and the supernatant was further centrifuged at 20000 g at 4° C. for 20 minutes. The pellet was suspended in an incubation buffer (20 mM Hepes buffer (pH 7.4) containing 10 mM glucose, 145 mM sodium chloride, 4.5 mM potassium chloride, 1.2 mM magnesium chloride and 1.5 mM calcium chloride) and used as crude synaptosomal fraction.
Each well of a 96-well round-bottom plate was used for the uptake reaction in a total volume of 200 μL solution containing purgurin (final concentration 10 μM) and ascorbic acid (final concentration 0.2 mg/mL).
After 10 minutes, the uptake reaction was terminated by suction filtration onto a 96-well glass fiber filter plate. The filters were rinsed with cold physi-ological saline solution, dried thoroughly, and micro scintillation 0 (Perkin-Elmer) was added thereto. Then, the residual radioactivity on the filters was measured.
The uptake value when only solvent was added was set as 100%, the uptake value when unlabeled NE (final concentration 10 μM) was added as 0% (nonspecific uptake value), and the 50% inhibitory concentration was calculated from the concentration of the test compound and its inhibitory activity.

[2] = Metabolic stability test (human liver microsome, hepatic intrinsic clearance); assay type: in vitro ADME; settings: human liver microsomes, pH 7.4; human liver microsome 0.2 mg/mL, test compound 0.001 mmol/L, 37° C., 0, 10 and 20 minutes
Procedure: A metabolic reaction was initiated by adding and mixing a test compound solution (final concentration 0.001 mmol/L) and a NADH/NADPH solution (final concentration 1 mmol/L) to a human liver microsome solution (final concentration 100 mmol/L potassium phosphate buffer solution (pH 7.4), 5 mmol/L magnesium chloride, 0.2 mg/ml, human liver microsome). A solution of the internal standard in methanol was prepared and used as a quenching solution.
Specifically, a metabolic reaction was initiated by adding and mixing 2.5 μL of a solution of a test compound in acetonitrile to 222.5 μL of a human liver microsome solution in ice water, followed by preincubation at 37° C. for 1 minute, and then adding 25 μL of a NADH/NADPH solution thereto.
(§1) The mixture was centrifuged (6130 g, 4° C., 10 minutes) and the supernatant was used as a sample for LC-MS/MS.
Peak area ratio ([peak area of test compound]/[peak area of internal standard]) was calculated for the test compound and the internal standard.
The residual ratio of the test compound was calculated from ([Ratio of peak areas at each reaction time]/[Ratio of peak areas at 0 minute reaction time]).

[3] = Protein binding rate test (human serum, equilibrium dialysis); assay type: in vitro ADME; settings: test compound 0.001 mmol/L, equilibrium dialysis 37° C. 6 hours
Procedure: A serum sample was prepared by adding a test compound solution to a human serum (final concentration of the test compound: 0.001 mmol/L). The serum sample and Dulbecco's Phosphate-Buffered Saline (D-PBS(−)) were added to the wells separated by a dialysis membrane to start the reaction. A solution of the internal standard in methanol was prepared and used as a quenching solution.
Specifically, the dialysis membrane (cut-off molecular weight 12000-14000) was pre-conditioned by immersing it in distilled water, followed by 20% ethanol. Then, the membrane was washed with D-PBS(−) and set in an equilibrium dialysis kit. Then, 150 μL of D-PBS(−) was added to one part of each well divided by the dialysis membrane, and 150 μL of serum sample was added to the other part. After sealing all wells and incubation at 37° C. for 6 hours, 30 μL from the serum side and 90 μL from the PBS side of each well were collected and mixed with 90 μL of D-PBS(−) or 30 μL of blank serum and 480 μL of a quenching solution to quench the reaction.
as §1
Peak area ratio ([peak area of test compound]/[peak area of internal standard]) was calculated for the test compound and the internal standard. By comparing the peak area ratio of the PBS side for each test compound with that of the serum side, the protein binding rate (%) of each test compound was calculated from (1-[peak area ratio of PBS side]/[peak area ratio of serum side])×100.

CYP2D6 = target: T2, CYP2D6 (Homo sapiens, UniProt P10635); test: CYP inhibition test (1): inhibition rate (%) at one concentration, CYP2D6; assay type: in vitro ADME; settings: human liver microsomes, pH 7.4, probe bufuralol (0.01 mmol/L); test compound 0.01 mmol/L, human liver microsome 0.1 mg/mL, substrate bufuralol, 37° C. 10 minutes; read-out: inhibition rate (%) 2D6
T2 construct: a human liver microsome solution containing three CYP-specific substrates; from tissue; host or cells: human liver microsomes
Procedure: A metabolic reaction was initiated by adding and mixing a test compound solution (final concentration 0.01 mmol/L) and a NADH/NADPH solution (final concentration 1 mmol/L) to a human liver microsome solution containing three CYP-specific substrates (final concentration 100 mmol/L potassium phosphate buffer solution (pH 7.4), 5 mmol/L magnesium chloride, 0.1 mg/mL human liver microsome, 0.005 mmol/L diclofenac (for CYP2C9), 0.01 mmol/L bufuralol (for […]), 0.005 mmol/L midazolam (for CYP3A4)). As an internal standard solution, a solution of each of stable isotopes of the metabolites (50 ng/mL [13C6] hydroxy diclofenac, 5 ng/mL [2H9] hydroxy bufuralol, and 5 ng/mL [13C6] hydroxy midazolam (all stable isotopes)) in methanol was prepared and used as a quenching solution.
Specifically, a metabolic reaction was initiated by adding and mixing 2 μL of a solution of a test compound in acetonitrile (or acetonitrile as a control) to 178 μL of a human liver microsome solution in ice water, followed by preincubation at 37° C. for 1 minute, and then adding 20 μL of a NADH/NADPH solution thereto. After incubation at 37° C. for 10 minutes, 50 μL of the reaction mixture was taken, and then it was added and mixed to 500 μL of a quenching solution to quech the reaction. The mixture was centrifuged (6130 g, 4° C., 10 minutes) and the supernatant was used as a sample for LC-MS/MS.
Peak area ratio ([peak area of metabolite]/[peak area of corresponding stable isotope]) was calculated for a metabolite and a stable isotope of the metabolite as measurement object. By comparing the peak area ratio of each test compound solution with that of the control, the inhibition rate (%) of each CYP species for each test compound was calculated from (1-[peak area ratio of each test compound solution]/[peak area ratio of control])×100.

T2 sequence (P10635 whole entry): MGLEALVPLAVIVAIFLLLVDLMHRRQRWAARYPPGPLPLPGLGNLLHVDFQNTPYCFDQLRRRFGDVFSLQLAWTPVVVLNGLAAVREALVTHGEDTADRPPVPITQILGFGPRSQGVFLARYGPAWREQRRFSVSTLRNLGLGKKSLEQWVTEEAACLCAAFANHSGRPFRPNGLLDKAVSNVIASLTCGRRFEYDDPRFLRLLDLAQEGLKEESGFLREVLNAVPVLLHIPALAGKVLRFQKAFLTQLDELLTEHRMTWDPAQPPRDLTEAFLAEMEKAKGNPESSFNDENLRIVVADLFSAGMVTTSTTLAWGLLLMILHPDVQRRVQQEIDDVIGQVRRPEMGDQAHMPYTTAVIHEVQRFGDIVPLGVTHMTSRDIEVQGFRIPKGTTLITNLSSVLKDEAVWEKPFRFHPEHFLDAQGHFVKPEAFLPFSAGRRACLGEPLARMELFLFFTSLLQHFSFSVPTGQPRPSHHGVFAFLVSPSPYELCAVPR
T1 sequence (Q63380 1-617): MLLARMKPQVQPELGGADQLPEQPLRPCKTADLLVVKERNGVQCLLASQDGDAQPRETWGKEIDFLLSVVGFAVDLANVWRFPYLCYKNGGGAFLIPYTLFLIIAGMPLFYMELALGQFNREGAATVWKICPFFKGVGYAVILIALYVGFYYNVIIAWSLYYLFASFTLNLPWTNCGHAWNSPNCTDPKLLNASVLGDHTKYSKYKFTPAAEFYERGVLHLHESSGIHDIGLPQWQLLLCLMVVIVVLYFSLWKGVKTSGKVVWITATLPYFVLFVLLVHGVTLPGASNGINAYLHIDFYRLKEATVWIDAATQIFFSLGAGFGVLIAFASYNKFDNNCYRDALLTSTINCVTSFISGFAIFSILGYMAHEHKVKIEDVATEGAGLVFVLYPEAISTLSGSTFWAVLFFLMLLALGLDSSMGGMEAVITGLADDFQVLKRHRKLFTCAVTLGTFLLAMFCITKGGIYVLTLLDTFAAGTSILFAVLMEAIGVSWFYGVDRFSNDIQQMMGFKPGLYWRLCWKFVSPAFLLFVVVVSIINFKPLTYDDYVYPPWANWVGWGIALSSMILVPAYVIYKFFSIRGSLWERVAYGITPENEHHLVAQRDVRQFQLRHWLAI

IC50 [1] [nM]	microsomal CLint at 0.001 mmol/L [2] [µL/min/mg]	fraction unbound at 6 h, 0.001 mmol/L [3]	inhibition at 10 min, 0.01 mmol/L (CYP2D6) [%]	Compound
2.7	< 50	0.727	–	C[C@@H]1CN(c2cc(F)c(OCCO)c(Cl)c2)[C@H]2CCCC[C@@H]2N1 [Example 17, 2-(2-chloro-6-fluoro-4-((3R,4aS,8aS)-3-methyloctahydroquinoxalin-1(2H)-yl)phenoxy)ethan-1-ol 1/2fumarate]
2.4	< 50	0.471	5.9	C[C@@H]1CN(c2ccc(OC(F)(F)CO)c(Cl)c2)[C@H]2CCCC[C@@H]2N1 [Example 19]
8.3	< 50	0.73	23	CC1(C)CN(c2ccc(OCCO)c(F)c2)[C@H]2CCCC[C@H]2N1 [Example 52]
5.9	< 50	0.796	–	CC1(C)CN(c2cc(F)c(OCCO)c(F)c2)[C@H]2CCCC[C@@H]2N1 [Example 34, 2-(4-((4aS,8aS)-3,3-dimethyloctahydroquinoxalin-1(2H)-yl)-2,6-difluorophenoxy)ethan-1-ol]
5.1	< 50	0.638	–	CC1(C)CN(c2cc(F)c(OCCO)c(F)c2)[C@H]2CCCC[C@H]2N1 [Example 36]
21.3	< 50	0.58	–	COc1cc(N2CC(C)(C)N[C@H]3CCCC[C@@H]32)ccc1OC(F)(F)CO [Example 26]
7.9	< 50	0.766	17.9	CC1(C)CN(c2cc(F)c(OCCO)cc2F)[C@H]2CCCC[C@H]2N1 [Example 72]
4.9	58	0.294	14.9	Cc1c(N2CC(C)(C)N[C@@H]3CCCC[C@@H]32)ccc(OC(F)(F)CO)c1F [Example 57]
3.6	84	0.261	19.2	CC1(C)CN(c2ccc(OCCO)c(Br)c2F)[C@H]2CCCC[C@H]2N1 [Example 63]
6.8	< 50	0.776	–	CC1(C)CN(c2cc(F)c(OCCO)c(F)c2)[C@@H]2CCCC[C@H]2N1 [Example 35]
8.4	< 50	0.401	15	OCCOc1c(F)cc(N2CC3(CCC3)N[C@H]3CCCC[C@@H]32)cc1Cl [Example 6]
7.1	< 50	0.411	18.1	CC1(C)CN(c2cc(F)c(OC(F)(F)CO)cc2F)[C@H]2CCCC[C@@H]2N1 [Example 77]
9.7	< 50	0.616	–	CC1(C)CN(c2ccc(OCCO)c(Cl)c2)[C@@H]2CCCC[C@H]2N1 [Example 28]
34.5	< 50	0.529	–	CN1[C@H]2CCCC[C@@H]2N(c2ccc(OC(F)(F)CO)cc2)CC1(C)C [Example 37, 2,2-difluoro-2-(4-((4aS,8aS)-3,3,4-trimethyloctahydroquinoxalin-1(2H)-yl)phenoxy)ethan-1-ol]
2.4	< 50	0.267	21.5	CC1(C)CN(c2ccc(OC(F)(F)CO)c(F)c2F)[C@H]2CCCC[C@H]2N1 [Example 73]
6.9	< 50	0.404	17.8	CC1(C)CN(c2cc(Br)c(OCCO)cc2F)[C@H]2CCCC[C@H]2N1 [Example 62]
6.3	< 50	0.285	28.8	CC1(C)CN(c2cc(F)c(OC(F)(F)CO)cc2F)[C@H]2CCCC[C@H]2N1 [Example 71]
7.5	< 50	0.482	–	Cc1cc(N2CC(C)(C)N[C@@H]3CCCC[C@H]32)ccc1OC(F)(F)CO [Example 32]
6.6	< 50	0.413	-7.8	Cc1cc(N2CC(C)(C)N[C@@H]3CCCC[C@@H]32)ccc1OC(F)(F)CO [Example 48]
5.8	< 50	0.289	38.8	Cc1c(OC(F)(F)CO)ccc(N2CC(C)(C)N[C@H]3CCCC[C@@H]32)c1F [Example 79]
5.5	< 50	0.497	–	Cc1cc(N2CC(C)(C)N[C@H]3CCCC[C@@H]32)ccc1OC(F)(F)CO [Example 31]
13.3	< 50	0.741	–	C[C@H]1CN(c2cc(F)c(OCCO)c(Cl)c2)[C@H]2CCCC[C@H]2N1 [Example 18]
4.4	< 50	0.569	–	CC1(C)CN(c2ccc(OC(F)(F)CO)cc2)[C@H]2CCCC[C@@H]2N1 [Example 20, 2-(4-((4aS,8aS)-3,3-dimethyloctahydroquinoxalin-1(2H)-yl)phenoxy)-2,2-difluoroethan-1-ol]
69	< 50	0.585	–	CC1(C)CN(c2ccc(OC(F)(F)CO)cc2)[C@@H]2CCCC[C@H]2N1 [Example 21]
7.7	< 50	0.585	–	CC1(C)CN(c2ccc(OCCO)c(Cl)c2)[C@H]2CCCC[C@@H]2N1 [Example 27, 2-(2-chloro-4-((4aS,8aS)-3,3-dimethyloctahydroquinoxalin-1(2H)-yl)phenoxy)ethan-1-ol]
